Holding throughout (assay type): cell-based, human
For experiment [1], the system named is dental pulp stem cells (DPSC). In words: NCI-60 sulforhodamine B (SRB) cytotoxicity assay, dental pulp stem cells. Particulars: 72 h, read-out: IC50 DPSC. As to the method:
(§1) The bioactivities of the synthesized chalcones were assessed on human liver cancer cell lines and on DPSCs with NCI-SRB assay in vitro. DPSCs used to asses the bioactivity of chalcones on untransformed control cells with the potential of hepatic lineage. […] We also included 5-Fluorouracil which is used in clinics for gastrointestinal cancers and Sorafenib. All results were normalized to DMSO negative control measurements. The experiment was performed in triplicate.
Dental pulp stem cells (DPSCs) were isolated from anonymised unidentified healthy intact wisdom tooth. DPSCs were isolated within few hours upon wisdom teeth surgery from patients above 18 years old. All were informed about the procedures, and their consents were obtained. Teeth were broken carefully in order to reach the dental pulp area. […] Then, the cells were seeded onto flasks in 10ml DMEM-F12 media (Lonza) supplemented with 1% penicillin/streptomycin solution (Hyclone) and 15% FBS (Fetal Bovine Serum,Hyclone, Logan, UT, USA) and cultured in a 5% CO2 incubator at 37^∘C .
(§2) Primary liver cancer cells Huh7, HepG2, Hep3B, Mahlavu, FOCUS, Snu475 along with hepatic progenitor Dental pulp stem cells were seeded into 96-well plates (1,000–3,000 HCC cell/well and 10,000 cells DPSC/well ) for 24 h. The cells were then treated with increasing concentrations of the chalcones ( 2.5-40μM ). DMSO (AppliChem Biochemica, Darmstadt, Germany) was used as negative control. The growth has stopped at the end of 72 h by fixing cold with 10% (v/v) trichloroacetic acid (Merck, Schuchardt, Germany). Cells were then stained with 0.4% (m/v) of sulforhodamine (Sigma-Aldrich, St. Louis, USA) in 1% acetic acid solution. […] All experiments were done in triplicate.
In general terms: In SRB staining, fixed cells bind dye roughly in proportion to their protein.

Another experiment relates to Hep3B. In words: NCI-60 sulforhodamine B (SRB) cytotoxicity assay, Hep3B. Particulars: 72 h, read-out: IC50 Hep3B. The procedure:
as §1
(§3) Well differentiated human primary liver cancer cell lines Huh7, HepG2 and Hep3B, and poorly differentiated Mahlavu, FOCUS and SNU475 HCC cells were cultured in Dulbecco’s Modified Eagle’s Standard (DMEM) medium supplemented with 10% Fetal Bovine Serum (FBS), 100 units/mL penicillin and 100 µg/mL streptomycin (Gibco, Invitrogen, Carlsbad, CA, USA). 0.1 mM nonessential amino acids (NEAA) which are specific to HCC cell lines also added to culture media. Cells were cultured in a 5% CO2 incubator at 37^∘C
as §2

In the next experiment the test system is Mahlavu. The experiment is described as follows: NCI-60 sulforhodamine B (SRB) cytotoxicity assay, Mahlavu. Particulars: 72 h, read-out: IC50 Mahlavu. As to the method: as §1, §3, §2
The test system of another experiment is FOCUS. In words: NCI-60 sulforhodamine B (SRB) cytotoxicity assay, FOCUS. Particulars: 72 h, read-out: IC50 FOCUS. The procedure: as §1, §3, §2
Another experiment concerns Huh7. In words: NCI-60 sulforhodamine B (SRB) cytotoxicity assay, Huh7. Particulars: read-out: IC50 Huh7. The procedure:
as §1, §3
Primary liver cancer cells Huh7, HepG2, Hep3B, Mahlavu, FOCUS, Snu475 along with hepatic progenitor Dental pulp stem cells were seeded into 96-well plates (1,000–3,000 HCC cell/well and 10,000 cells DPSC/well ) for 24 h. The cells were then treated with increasing concentrations of the chalcones ( 2.5-40μM ). DMSO (AppliChem Biochemica, Darmstadt, Germany) was used as negative control. The growth has stopped at the end of 72 h by fixing cold with 10% (v/v) trichloroacetic acid (Merck, Schuchardt, Germany). Cells were then stained with 0.4% (m/v) of sulforhodamine (Sigma-Aldrich, St. Louis, USA) in 1% acetic acid solution. The absorbency values were acquired at 515 nm. All experiments were done in triplicate.

Another experiment relates to SNU475. In words: NCI-60 sulforhodamine B (SRB) cytotoxicity assay, SNU475. Particulars: read-out: IC50 SNU475. The procedure:
as §1, §3, §2

The test system of a further experiment is HepG2. In words: NCI-60 sulforhodamine B (SRB) cytotoxicity assay, HepG2. Particulars: read-out: IC50 HepG2. As to the method: as §1, §3, §2
The mark [2] stands for this setting: Homo sapiens, SRB, 2.5–40 μM, triplicate, untransformed control cells.
Where [3] appears, read: Homo sapiens, Hep3B, SRB, 2.5–40 μM, triplicate.
The mark [4] stands for this setting: Homo sapiens, Mahlavu, SRB, 2.5–40 μM, triplicate.
Where [5] appears, read: Homo sapiens, SRB, 2.5–40 μM, triplicate.
Where [6] appears, read: Homo sapiens, Huh-7, SRB, 72 h, 2.5–40 μM, triplicate.
Where [7] appears, read: Homo sapiens, HepG2, SRB, 72 h, 2.5–40 μM, triplicate.
The mark [8] stands for this setting: Homo sapiens, SNU-475, SRB, 72 h, 2.5–40 μM, triplicate.
The mark [9] stands for this setting: SRB, 72 h, 2.5–40 μM, triplicate.

The structures appear in SMILES notation. Where a name gives a salt, the structure may show the parent alone. Read-outs that look alike come from different tables or passages of the source.

For orientation: IC50 means the concentration that inhibits the measured activity by half. For the compound `COc1ccc(/C=C/C(=O)c2ccccc2)cc1` [compound 6], the half-inhibitory concentration (IC50) in experiment [1] (Homo sapiens) was more than 40 µM; with Hep3B (Homo sapiens, Hep3B) it was 7.8 µM; in the experiment with Mahlavu (Homo sapiens, Mahlavu), 6.3 µM; in the experiment with FOCUS (Homo sapiens), 6.5 µM; in the experiment with Huh7 (Homo sapiens, Huh-7, 72 h), 6.4 µM; with SNU475 (Homo sapiens, SNU-475, 72 h) it was 10 µM. In the experiment on HepG2 (Homo sapiens, HepG2, 72 h), the IC50 was determined as 7.6 µM.
As to `O=c1[nH]cc(F)c(=O)[nH]1` [5-Fluorouracil, reference compound], the IC50 in experiment [1] (setting [2]) was determined as 23.7 µM; in the experiment on Hep3B (setting [3]), 15.2 µM; with Mahlavu (setting [4]), 10 µM; with FOCUS (setting [5]) it was 7.7 µM; in the experiment with Huh7 (setting [6]), 30.7 µM; with HepG2 (setting [7]), 5 µM.
On to `O=c1c(O)c(-c2ccc(O)c(O)c2)oc2cc(O)cc(O)c12` [Quercetin, reference compound], for which the IC50 in experiment [1] (setting [2]) turned out to be 21.2 µM; in the experiment on Hep3B (setting [3]), 21.8 µM; in the experiment on Mahlavu (setting [4]), 11.3 µM; in the experiment on FOCUS (setting [5]), 17.9 µM; in the experiment with Huh7 (setting [6]), 12.5 µM; with SNU475 (setting [8]) it was 11.6 µM. Further, the 50% inhibitory concentration (IC50) in the experiment on HepG2 (setting [7]) was found to be 8.4 µM.
For `COc1ccc(Cc2nccc3cc(OC)c(OC)cc23)cc1OC` [Papaverine hydrochloride, reference compound], the IC50 in experiment [1] (setting [2]) is more than 40 µM; in the experiment on Hep3B (setting [3]), 20.4 µM; in the experiment on Mahlavu (setting [4]), more than 40 µM; in the experiment with FOCUS (setting [5]), 1.7 µM; with Huh7 (Homo sapiens, Huh-7, 72 h), 8.5 µM; in the experiment with SNU475 (setting [8]) it was 17.8 µM. In the experiment on HepG2 (setting [7]), the IC50 is 4.9 µM.
As for `COc1ccc(C(=O)/C=C/c2ccc(Cl)cc2)cc1` [compound 10], the IC50 was more than 40 µM in experiment [1] (setting [2]); 16.5 µM in the experiment with Hep3B (setting [3]); 14.6 µM in the experiment with Mahlavu (setting [4]); 15.9 µM with FOCUS (setting [5]); 11.9 µM with Huh7 (setting [6]); 20 µM with SNU475 (setting [8]). Moreover, in the experiment on HepG2 (setting [7]), the IC50 was determined as 13.9 µM.
As to `CNC(=O)c1cc(Oc2ccc(NC(=O)Nc3ccc(Cl)c(C(F)(F)F)c3)cc2)ccn1` [Sorafenib, reference compound], the concentration for half-maximal inhibition (IC50) in experiment [1] (setting [2]) worked out at 7.1 µM; in the experiment on Mahlavu (setting [4]), 7.9 µM; with Huh7 (Homo sapiens, Huh-7, 72 h), 1.3 µM; in the experiment with SNU475 (setting [8]) it was 7.5 µM; in the experiment on HepG2 (setting [7]), 5.6 µM.
In the case of `COc1ccc(/C=C/C(=O)c2ccc(OC)cc2)cc1` [compound 8], the IC50 was more than 40 µM in experiment [1] (setting [2]); 22.1 µM with Hep3B (setting [3]); 17.3 µM in the experiment on Mahlavu (setting [4]); 21.5 µM in the experiment with FOCUS (setting [5]); 17.9 µM with Huh7 (setting [6]); 21.6 µM with SNU475 (setting [8]). Also, in the experiment on HepG2 (setting [7]), the IC50 stood at 26 µM.
Take `O=C(/C=C/c1cccc([N+](=O)[O-])c1)c1ccccc1` [compound 4]: the 50% inhibitory concentration (IC50) is more than 40 µM in experiment [1] (setting [2]); more than 40 µM with Hep3B (setting [3]); 24.8 µM with Mahlavu (setting [4]); more than 40 µM with FOCUS (setting [5]); more than 40 µM in the experiment on Huh7 (setting [6]); 23.8 µM in the experiment with SNU475 (setting [8]). In the experiment with HepG2 (setting [7]), the IC50 was more than 40 µM.
For the compound `COc1ccc(C(=O)/C=C/c2ccccc2)cc1` [compound 3], the concentration for half-maximal inhibition (IC50) in experiment [1] (setting [2]) was more than 40 µM; with Hep3B (setting [3]), 18 µM; with Mahlavu (setting [4]) it was 9.4 µM; with FOCUS (setting [5]) it was 20 µM; in the experiment with Huh7 (setting [6]) it was 6.4 µM; in the experiment on SNU475 (setting [8]), 13.1 µM. In the experiment with HepG2 (setting [7]), the IC50 is 7.6 µM.
As for `Oc1cc(O)c2c(c1)O[C@H](c1ccc(O)c(O)c1)[C@@H](O)C2` [Catechin hydrate, reference compound], the IC50 is more than 40 µM in experiment [1] (SRB, 2.5–40 μM, triplicate, untransformed control cells); more than 40 µM with Hep3B (SRB, 2.5–40 μM, triplicate); more than 40 µM with Mahlavu (SRB, 2.5–40 μM, triplicate); more than 40 µM with FOCUS (SRB, 2.5–40 μM, triplicate); more than 40 µM with Huh7 (setting [9]); more than 40 µM in the experiment on SNU475 (setting [9]). Further, in the experiment on HepG2 (setting [9]), the IC50 was more than 40 µM.
In the case of `COc1ccc(/C=C/C(=O)c2cccc([N+](=O)[O-])c2)cc1` [compound 7], the IC50 in experiment [1] (setting [2]) is more than 40 µM; in the experiment with Hep3B (setting [3]), more than 40 µM; in the experiment with Mahlavu (setting [4]), 31.1 µM; with FOCUS (setting [5]), more than 40 µM; in the experiment with Huh7 (setting [6]), more than 40 µM; with SNU475 (setting [8]) it was more than 40 µM. For the same compound, the IC50 in the experiment on HepG2 (setting [7]) was more than 40 µM.

The values above are taken from article PMC7367369, “A small library of chalcones induce liver cancer cell death through Akt phosphorylation inhibition” (Scientific Reports, 2020).
